According to patent publication US7534859B2, “Protein kinase C epsilon as modulator of anxiety, alcohol consumption and self-administration of drugs of abuse” (The Regents of the University of California, priority 1998, dated 2009):
Read-outs that look alike come from different tables or passages of the source.

Assays:
[1] = system: PKCε−/− and PKCε+/+ mice; assay: locomotor activity in activity chambers after intraperitoneal injection; assay type: in vivo, mouse; settings: for locomotor response (distance traveled), PKCε−/− compared to PKCε+/+: i.p.: diazepam 0.5, 1.5, 4.0 mg/kg, muscimol 0.1, 0.2, 0.4 mg/kg, MK-801 0.01, 0.02, 0.03 mg/kg
[2] = system: PKCε−/− and PKCε+/+ mice; assay: loss of righting reflex (LORR) after intraperitoneal injection; assay type: in vivo, mouse; settings: for LORR duration / sensitivity to sedative effects, PKCε−/− compared to wild-type: Example 3, earlier experiment, sedative doses of pentobarbital
[3] = system: PKCε−/− and PKCε+/+ mice; settings: 2-14% ethanol vs water, two-bottle choice
[4] = system: PKCε−/− and PKCε+/+ mice; settings: 2.0 g/kg i.p.
Procedure: Probes were perfused with artificial cerebrospinal fluid (aCSF), and animals were allowed to recover overnight. Mice were placed in open field chambers equipped with photobeams, and dialysis sample tubes were changed at 10 min intervals.

[5] = system: GABAA receptor; assay: 36Cl− uptake in cortical microsacs from PKCε−/− and PKCε+/+ mice (GABAA receptor function); assay type: biochemical, mouse; settings: for activation of GABAA receptors (muscimol-stimulated Cl− uptake): 10^−12M to 10^−9M, 1 μM muscimol
[6] = system: PKCε−/− and PKCε+/+ mice; settings: two weeks liquid diet containing 5% ethanol; 2, 4, 6, 7 hours after removal
Procedure: Withdrawal seizures known as handling-induced convulsions (HIC) can be induced in mice by handling them after chronic exposure to ethanol. […] Withdrawal seizures were evaluated in 4 PKCε^+/+ and 4 PKCε^−/− mice following two weeks exposure to a fully nutritious liquid diet containing 5% ethanol (Dyets, Bethlehem, Pa.) as the only source of food or fluid. Seizures were videotaped at 2, 4, 6, and 7 hours following removal of ethanol from the cage and rated by observers who were blind to the genotype and drug exposure. Data were averaged across time-points and mice.

[7] = system: PKCε; assay: muscimol/flunitrazepam-stimulated 36Cl− uptake in saponin-permeabilized microsacs treated with PKCε inhibitor peptide; assay type: biochemical, mouse; settings: for effect of peptide on the enhancing effect of flunitrazepam on muscimol-stimulated Cl− uptake: wild-type microsacs, 100 μM peptide, 1 μM muscimol and 0.1 μM flunitrazepam, 5 seconds
Procedure: GABAA receptor function was tested directly in wild-type and mutant mice. […] Following a five minute incubation in a shaking water bath at 34° C., chloride uptake in 200 μl membrane aliquots was initiated by the addition and immediate vortexing of 200 μl of a solution containing […] (0.2 μCi/ml of assay buffer). Drugs (muscimol, flunitrazepam, or ethanol) were added only in the ^36Cl^− solution. […] Hg) onto a 2.5 cm Whatman GF/C glass microfiber filter, using a Hoefer manifold (Hoefer Scientific, San Francisco, Calif.). The filters were washed with an additional 12 ml of cold assay buffer. Filters were submerged in Filtron-X (National Diagnostics) and the amount of radioactivity on the filters was determined by liquid scintillation spectrometry. Muscimol-dependent uptake was defined as the total amount of ^36Cl^− taken up while muscimol was present in the medium minus the amount of ^36Cl^− taken up when muscimol was not present.
Microsacs were then centrifuged again at 900× g for 15 min at 4° C. and re-suspended in assay buffer with protease inhibitors at 5 mg/ml immediately prior to assaying ^36Cl^− uptake.

[8] = ethanol 3.2, 3.6, 4.0 g/kg i.p.

Compound: CN1C(=O)CN=C(c2ccccc2)c2cc(Cl)ccc21 [diazepam]
- locomotor response (distance traveled), PKCε−/− compared to PKCε+/+ [1]: significant increase in distance traveled
- sensitivity to sedative effects (LORR), PKCε−/− compared to PKCε+/+ ([2]; diazepam 20, 30, 40 mg/kg i.p., Example 6): 30 fold

Compound: CCO [ethanol]
- increase in locomotor activity, PKCε−/− compared to PKCε+/+ ([1]; male mice, 2 g/kg ethanol i.p., 15-minute period): two-fold greater increase
- reduction in ethanol preference, PKCε−/− compared to PKCε+/+ [3]: 75%
- extracellular dopamine levels in nucleus accumbens after administration ([4]; PKCε+/+ mice): transient increase in dopamine levels
- extracellular dopamine levels in nucleus accumbens after administration ([4]; PKCε−/− mice): No change in dopamine levels
- LORR duration / sensitivity to sedative effects, PKCε−/− compared to wild-type [2, 8]: significantly higher LORR duration
- time required to regain righting reflex (LORR duration), PKCε−/− compared to PKCε+/+ ([2]; ethanol 3.2, 3.6, 4.0 g/kg i.p., Example 5): two-fold increase
- enhancement of muscimol-stimulated Cl− uptake, PKCε−/− microsacs compared to wild-type ([5]; 1 μM muscimol with 20 mM ethanol or 0.1 μM flunitrazepam): two-fold greater
- reduction in withdrawal seizure severity (HIC score) compared to wildtype littermates [6]: 50%

Compound: CC(=O)[C@H]1CC[C@H]2[C@@H]3CC[C@H]4C[C@H](O)CC[C@]4(C)[C@H]3CC[C@]12C [allopregnanolone, 3alpha-hydroxy-5alpha-pregnan-20-one]
- activation of GABAA receptors (muscimol-stimulated Cl− uptake) ([5]; microsacs from PKCε+/+ mice): comparatively little effect
- activation of GABAA receptors (muscimol-stimulated Cl− uptake) ([5]; microsacs from PKCε−/− mice): substantially activate

Compound: S-εV1-2: scrambled version of the εV1-2 peptide, LSETKPAV
- effect of peptide on the enhancing effect of flunitrazepam on muscimol-stimulated Cl− uptake [7]: no effect

Compound: NCc1cc(=O)[nH]o1 [muscimol]
- locomotor response (distance traveled), PKCε−/− compared to PKCε+/+ [1]: indistinguishable
- Cl− uptake stimulated by direct agonist, knockout compared to wild-type ([5]; 0-20 μM muscimol, 5 seconds): similar

Compound: CCCC(C)C1(CC)C(=O)NC(=O)NC1=O (centres unmarked) [pentobarbital]
- LORR duration / sensitivity to sedative effects, PKCε−/− compared to wild-type [2, 8]: two-fold greater sensitivity
- sensitivity to sedative effects (LORR), PKCε−/− compared to control mice ([2]; pentobarbital 30, 40, 50 mg/kg i.p., Example 6): three-fold greater sensitivity

Compound: C[C@]12N[C@H](Cc3ccccc31)c1ccccc12 [MK-801]
- locomotor response (distance traveled), PKCε−/− compared to PKCε+/+ [1]: No differences

Compound: εV1-2: selective inhibitor of PKCε, peptide EAVSLKPT
- effect of peptide on muscimol and flunitrazepam-stimulated 36Cl− uptake ([7]; microsacs from PKCε−/− mice): did not affect
- effect of peptide on the enhancing effect of flunitrazepam on muscimol-stimulated Cl− uptake [7]: markedly increased
